For assay [1], the target named is T1, Tyrosine-protein kinase Lck (Homo sapiens, UniProt P06239). Nature of the assay: Inhibition of p56 lck autophosphorylation, gamma-[33P]ATP incorporation (Inactive).
Target sequence in this assay (P06239 whole entry): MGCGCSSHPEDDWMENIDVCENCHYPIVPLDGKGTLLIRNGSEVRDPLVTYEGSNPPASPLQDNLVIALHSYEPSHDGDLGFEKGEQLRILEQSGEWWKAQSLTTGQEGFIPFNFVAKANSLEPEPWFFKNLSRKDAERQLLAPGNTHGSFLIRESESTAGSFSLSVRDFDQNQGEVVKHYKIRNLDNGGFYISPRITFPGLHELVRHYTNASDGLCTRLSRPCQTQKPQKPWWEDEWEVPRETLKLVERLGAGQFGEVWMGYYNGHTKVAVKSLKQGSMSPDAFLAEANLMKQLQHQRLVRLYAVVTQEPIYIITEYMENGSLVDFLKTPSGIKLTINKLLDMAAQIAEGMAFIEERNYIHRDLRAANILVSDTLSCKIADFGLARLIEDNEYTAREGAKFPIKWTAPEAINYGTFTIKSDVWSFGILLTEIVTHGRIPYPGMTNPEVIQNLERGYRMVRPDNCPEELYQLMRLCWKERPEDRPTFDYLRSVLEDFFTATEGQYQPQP
Assay [2] addresses Protein kinase C gamma type (Homo sapiens) (UniProt P05129). As to the kind of experiment: Inhibition of Protein Kinase C gamma at 10 uM Histone H1 substrate.
The target of assay [3] is Protein kinase C alpha type (Homo sapiens) (UniProt P17252). As to the kind of experiment: Inhibition of Protein kinase C alpha at 10 uM Histone H1 substrate.
Assay [4] addresses T2, CaM kinase II (Homo sapiens) (UniProt Q13557+Q13555+Q13554+Q9UQM7). Nature of the assay: (§1) Inhibition of [Ca(2+)]/Calmodulin-dependent Type II protein kinase at 10 uM. Format: protein assay.
Assay [5] addresses T1, Tyrosine-protein kinase Lck. Nature of the assay: Inhibition of p56 lck autophosphorylation, gamma-[33P]ATP incorporation.
Target sequence in this assay (P06239 whole entry): as the sequence (P06239 whole entry) above
Assay [6] has as its target Receptor tyrosine-protein kinase erbB-2 (Homo sapiens) (UniProt P04626). As to the kind of experiment: Inhibition of Her2, ErbB2 receptor tyrosine kinase at 10 uM.
Assay [7] deals with Protein kinase C beta type (Homo sapiens) (UniProt P05771). Nature of the assay: Inhibition of Protein Kinase C beta at 10 uM Histone H1 substrate (Inactive).
Chain of Protein kinase C beta type (Homo sapiens) (P05771 2-671 limits assumed): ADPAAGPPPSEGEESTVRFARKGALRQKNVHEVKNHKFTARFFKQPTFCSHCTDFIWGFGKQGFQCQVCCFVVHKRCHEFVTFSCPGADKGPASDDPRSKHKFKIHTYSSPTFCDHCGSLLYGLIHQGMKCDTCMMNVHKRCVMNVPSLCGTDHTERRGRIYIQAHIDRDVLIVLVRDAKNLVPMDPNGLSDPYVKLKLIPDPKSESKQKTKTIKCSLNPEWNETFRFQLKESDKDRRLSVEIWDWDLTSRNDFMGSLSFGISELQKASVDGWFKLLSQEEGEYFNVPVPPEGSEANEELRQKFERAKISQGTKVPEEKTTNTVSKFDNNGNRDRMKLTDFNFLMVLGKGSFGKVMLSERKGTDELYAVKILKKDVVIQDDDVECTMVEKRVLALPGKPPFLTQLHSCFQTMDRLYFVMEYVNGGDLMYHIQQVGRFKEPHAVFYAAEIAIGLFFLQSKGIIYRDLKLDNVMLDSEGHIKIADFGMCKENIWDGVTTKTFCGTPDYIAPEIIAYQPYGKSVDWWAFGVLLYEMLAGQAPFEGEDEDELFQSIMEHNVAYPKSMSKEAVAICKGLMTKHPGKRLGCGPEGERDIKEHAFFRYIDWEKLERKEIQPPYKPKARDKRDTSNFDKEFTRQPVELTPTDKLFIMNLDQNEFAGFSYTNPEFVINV
The target in assay [8] is T3, Tyrosine-protein kinase SYK (Homo sapiens, UniProt P43405). As to the kind of experiment: Inhibition of p72 syk autophosphorylation.
Assay [9] has as its target T1, Tyrosine-protein kinase Lck. Nature of the assay: Inhibition of Lck protein kinase at 10 uM.
Assay [10] concerns the target Tyrosine-protein kinase Fyn (Homo sapiens) (UniProt P06241). As to the kind of experiment: Inhibition of Fyn protein kinase at 10 uM.
For assay [11], the target named is T4, Tyrosine-protein kinase Blk (Homo sapiens, UniProt P51451). As to the kind of experiment: (§2) Inhibition of p74 Blk tyrosine kinase autophosphorylation (Inactive).
Target sequence in this assay (P51451 2-505 limits assumed): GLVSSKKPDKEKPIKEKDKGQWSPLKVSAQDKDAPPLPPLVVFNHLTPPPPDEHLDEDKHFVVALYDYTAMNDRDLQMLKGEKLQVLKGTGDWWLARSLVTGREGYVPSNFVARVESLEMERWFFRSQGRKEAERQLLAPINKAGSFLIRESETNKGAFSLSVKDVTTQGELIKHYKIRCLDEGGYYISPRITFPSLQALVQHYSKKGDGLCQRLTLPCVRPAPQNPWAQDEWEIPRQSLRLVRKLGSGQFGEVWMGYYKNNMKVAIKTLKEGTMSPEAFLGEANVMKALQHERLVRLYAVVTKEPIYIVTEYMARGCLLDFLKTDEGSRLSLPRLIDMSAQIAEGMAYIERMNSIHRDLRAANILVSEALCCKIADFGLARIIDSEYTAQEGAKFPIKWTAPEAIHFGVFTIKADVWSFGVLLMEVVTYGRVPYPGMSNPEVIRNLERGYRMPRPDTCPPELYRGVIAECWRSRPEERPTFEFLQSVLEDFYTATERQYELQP
For assay [12], the target named is T2, CaM kinase II (Homo sapiens). The assay is described as §1. Format: protein assay. This is another data set of the same source.
The next assay has as its system M109. As to the kind of experiment: Cytotoxic effect on M109 mouse lung carcinoma cells at 40 uM (No effect). The class given is functional, cell-based.
The target in assay [13] is Epidermal growth factor receptor (Homo sapiens) (UniProt P00533). Conditions: 10 uM.
Chain of Epidermal growth factor receptor (Homo sapiens) (P00533 whole entry): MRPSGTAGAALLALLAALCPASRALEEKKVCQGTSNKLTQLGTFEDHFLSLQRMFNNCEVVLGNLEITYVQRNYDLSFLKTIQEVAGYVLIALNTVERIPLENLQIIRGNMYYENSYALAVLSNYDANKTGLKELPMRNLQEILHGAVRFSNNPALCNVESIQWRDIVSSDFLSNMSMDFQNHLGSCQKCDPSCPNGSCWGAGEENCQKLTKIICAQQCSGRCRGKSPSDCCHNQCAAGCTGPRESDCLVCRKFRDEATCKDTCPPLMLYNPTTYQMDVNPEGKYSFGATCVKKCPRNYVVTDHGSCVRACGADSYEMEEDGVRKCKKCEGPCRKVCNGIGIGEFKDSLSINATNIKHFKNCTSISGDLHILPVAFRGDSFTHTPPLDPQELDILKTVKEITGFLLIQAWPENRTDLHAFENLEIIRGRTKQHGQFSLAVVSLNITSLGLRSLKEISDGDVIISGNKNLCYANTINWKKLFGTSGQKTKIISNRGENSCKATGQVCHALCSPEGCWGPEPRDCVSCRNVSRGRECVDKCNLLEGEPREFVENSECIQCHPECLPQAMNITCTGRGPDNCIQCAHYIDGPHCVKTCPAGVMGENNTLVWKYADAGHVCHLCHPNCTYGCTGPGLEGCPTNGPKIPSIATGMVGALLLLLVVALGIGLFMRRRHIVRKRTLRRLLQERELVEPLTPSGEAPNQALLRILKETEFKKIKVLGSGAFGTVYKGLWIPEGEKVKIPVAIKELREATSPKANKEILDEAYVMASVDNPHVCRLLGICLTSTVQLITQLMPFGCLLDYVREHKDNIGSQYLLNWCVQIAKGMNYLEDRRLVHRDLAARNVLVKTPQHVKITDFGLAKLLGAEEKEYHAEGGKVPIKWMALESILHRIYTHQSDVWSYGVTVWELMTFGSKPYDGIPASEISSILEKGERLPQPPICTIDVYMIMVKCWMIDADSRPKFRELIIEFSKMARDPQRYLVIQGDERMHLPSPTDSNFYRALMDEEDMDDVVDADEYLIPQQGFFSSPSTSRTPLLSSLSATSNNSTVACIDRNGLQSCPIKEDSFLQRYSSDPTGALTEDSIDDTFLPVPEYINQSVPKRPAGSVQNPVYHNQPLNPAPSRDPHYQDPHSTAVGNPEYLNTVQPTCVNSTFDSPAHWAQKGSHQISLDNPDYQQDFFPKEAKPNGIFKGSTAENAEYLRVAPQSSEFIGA
Description: Inhibition of Epidermal growth factor receptor at 10 uM
The nature of assay [14]: Inhibition of cAMP-dependent protein kinase at 10 uM Histone H1 substrate.
Assay [15] has as its target T3, Tyrosine-protein kinase SYK. As to the kind of experiment: Inhibition of p72 syk autophosphorylation (Inactive).
Assay [16] addresses T4, Tyrosine-protein kinase Blk. The assay is described as §2. This is another data set of the same source.
Target sequence in this assay (P51451 whole entry): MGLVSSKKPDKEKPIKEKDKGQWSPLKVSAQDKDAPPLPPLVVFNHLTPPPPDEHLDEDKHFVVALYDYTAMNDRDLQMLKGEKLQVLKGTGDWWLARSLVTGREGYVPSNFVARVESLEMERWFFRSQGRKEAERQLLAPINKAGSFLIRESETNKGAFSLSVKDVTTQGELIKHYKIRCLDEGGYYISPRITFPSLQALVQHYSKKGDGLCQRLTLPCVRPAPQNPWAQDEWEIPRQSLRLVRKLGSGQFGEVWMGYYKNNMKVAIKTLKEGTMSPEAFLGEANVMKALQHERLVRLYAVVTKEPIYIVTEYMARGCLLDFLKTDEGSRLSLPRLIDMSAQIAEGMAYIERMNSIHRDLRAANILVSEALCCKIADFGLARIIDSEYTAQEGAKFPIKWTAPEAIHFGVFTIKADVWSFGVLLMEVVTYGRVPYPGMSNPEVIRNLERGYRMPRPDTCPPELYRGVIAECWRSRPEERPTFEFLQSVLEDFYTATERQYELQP

Here are results for 3 compounds from ChEMBL document CHEMBL1131644, “1-Methoxy-agroclavine from Penicillium sp. WC75209, a novel inhibitor of the Lck tyrosine kinase” (Bioorg Med Chem Lett, 1998).

The source made the active and inactive calls. The rule behind the calls is not given here.

The IC50 is the midpoint of a concentration-inhibition curve. Broadly, the inhibition is the relative decrease from the control value, in per cent.

With `CN1C[C@H](CO)C=C2c3cccc4[nH]cc(c34)C[C@H]21`, the 50% inhibitory concentration (IC50) result in assay [1] was “Not Active”.

Turning to `COn1cc2c3c(cccc31)[C@@H]1C=C(C)CN(C)[C@@H]1C2`, the inhibition entry in assay [2], in assay [3], in [4], in assay [7], in assay [11] and in assay [12] was “inactive” in each case. In addition, the inhibition entry in assay [14] is “inactive”. The IC50 in [5] was determined as 8.5 µM; in [8], 285 µM. The inhibition in assay [6] was found to be 9%; in assay [9], 42%; in [10] it was 19%; in [13], 14%. Further, in the assay on M109, the Cytotoxicity entry was “inactive”.

As to `CC1=C[C@@H]2c3cccc4[nH]cc(c34)C[C@H]2N(C)C1` [AGROCLAVINE], the IC50 result in assay [1], in assay [15] and in assay [16] was “Not Active” in each case.
